Assay results: patent publication US20040191902A1, “Growth and differentiation of stem cells” (Pfizer Inc, priority 2003, published 2004)

What was measured:
[1] = test system: CYP3a, CYP2d, CYP2e1 and CYP1a2 in hepatocyte-like cells; assay: Conversion of test compounds by hepatocyte-like cells (HPLC and mass spectrometry of supernatants)
Protocol: The presence of CYP proteins in the hepatocyte-like cells was also determined by monitoring the conversion of certain compounds added to the hepatocyte-like cells. Two test compounds (7-ethoxy-coumarin and dextromethorphan) were added to hepatocyte-like cells. The supernatants of the cells were then subjected to high pressure liquid chromatography (HPLC) and mass spectrometry to identify products of the conversion of the test compounds by CYP3a, CYP2d, CYP2e1 and CYP1a2.

[2] = test system: hepatocyte-like cells; assay: Dibenzylfluorescein (DBF) assay for metabolic activity of hepatocyte-like cells; format: in vitro ADME, mouse; settings: hepatocyte-like cells differentiated in presence or absence of HPO
Protocol: Another test that was used to characterize the hepatocyte-like cells is the dibenzylfluorescein (DBF) assay for metabolic activity. See, for example, Stresser et al., Drug Metab. Disp., 28:1440-48 (2000). These assays were conducted using a DBF compound (Molecular Probes, Eugene Oreg.) according to the manufacturer's recommendations.

[3] = test system: 4MBr-5 cell line; settings: 3H-thymidine incorporation, typical range; cited from earlier work
[4] = test system: TF-1 cell line; settings: proliferation of TF-1; typical range; cited from earlier work
[5] = test system: Balb/3T3 cell line; settings: 3H-thymidine incorporation, typical range; cited from earlier work
[6] = test system: cells differentiating from ES cells into hepatocyte-like cells; assay: In vitro differentiation of mouse ES cells into hepatocyte-like cells with hepatopoietin added to the media; format: cell-based
Protocol: Mouse ES cells were differentiated into hepatocyte-like cells as described above, with the addition of 50 ng/ml mouse hepatopoietin protein to the HepII, HepIII and/or HepIV media. The mouse hepatopoietin protein consisted of a portion of the wild-type protein, which portion has the amino acid sequence set forth in SEQ ID NO: 16.
The presence of hepatopoietin in either medium had this effect, but the strongest effect was seen when it was included in all three media, i.e., during the middle stage, the late stage and the maturation and selection stage. In this case, it appeared that over 90% of the cells in the culture were hepatocyte-like cells.

[7] = test system: NIH/3T3 cells; settings: 3H-thymidine incorporation, quiescent NIH/3T3; typical range; cited from earlier work

CCOc1ccc2ccc(=O)oc2c1 [7-ethoxy-coumarin]
conversion products by CYP3a, CYP2d, CYP2e1 and CYP1a2 ([1]; hepatocytes): expected conversion products were obtained

O=C(OCc1ccccc1)c1ccccc1-c1c2ccc(=O)cc-2oc2cc(OCc3ccccc3)ccc12 [DBF, dibenzylfluorescein]
DBF assay for metabolic activity [2]: positive

COc1ccc2c(c1)[C@]13CCCC[C@@H]1[C@H](C2)N(C)CC3 [dextromethorphan]
conversion products by CYP3a, CYP2d, CYP2e1 and CYP1a2 ([1]; added to hepatocyte-like cells, supernatants by HPLC and mass spectrometry): expected conversion products were obtained

human recombinant HGF: human recombinant hepatocyte growth factor
ED50 [3]: 20 to 40 ng/mL

human recombinant OSM: human recombinant oncostatin M
ED50 [4]: 0.1 to 3 ng/mL

human recombinant aFGF: human recombinant acidic fibroblast growth factor
ED50 [5]: 2 to 10 ng/mL

mouse HPO: portion of wild-type mouse hepatopoietin, 125 amino acids, SEQ ID NO: 16, produced in E. coli
proliferation of cells giving rise to hepatocyte-like cells ([6]; 50 ng/ml in HepII, HepIII and/or HepIV media): stimulates the proliferation
cells in the culture that were hepatocyte-like cells ([6]; 50 ng/ml included in all three media (middle, late, maturation and selection stages)): over 90%

B1: mouse recombinant OSM: mouse recombinant oncostatin M (protein, UniProt P53347 25-206, looked up)
Oncostatin-M: NRGCSNSSSQLLSQLQNQANLTGNTESLLEPYIRLQNLNTPDLRAACTQHSVAFPSEDTLRQLSKPHFLSTVYTTLDRVLYQLDALRQKFLKTPAFPKLDSARHNILGIRNNVFCMARLLNHSLEIPEPTQTDSGASRSTTTPDVFNTKIGSCGFLWGYHRFMGSVGRVFREWDDGSTRSRR
ED50 [7]: 2 to 4 ng/mL
